Reference: PubChem BioAssay AID2060491 (Molecular Pharmacology Branch, DTP, NCI, 2025)

Test system: 857933-349-R-J2-PDC complex spheroids, viability
Experiment: Anticancer human tumor 857933-349-R-J2-PDC patient-derived colon adenocarcinoma cell line growth inhibition [GQUAD]
Conditions: for IC50: curve of first compound; for viability, T/C: stronger effect = lower value
Source text: DNA G-quadruplex Stabilizer Agents in Combinations in Complex Spheroids
A high-throughput screen of multi-cell type tumor spheroids was designed to identify active combinations of DNA G-quadruplex stabilizer agents and targeted small molecules. Complex spheroids include a stromal component modeled by human endothelial cells (HUVEC) and fibroblasts modeled by human mesenchymal stem cells (MSCs). The concentration ranges selected for each drug and investigational agent were based upon clinically achievable concentrations if the clinical Cmax of the agent was known.
Compounds. The drugs and investigational agents: pidnarulex (CX-5461; NSC782164), APTO-253 (NSC789042), BRACO-19 (NSC847499), peposertib (NSC802822), ceralasertib (NSC780249), elimusertib (NSC800525), camonsertib (NSC841442), AZD-1390 (NSC803789), olaparib (NSC753686), talazoparib (NSC767125), ART-558 (NSC835418), sotorasib (NSC818433), MRTX-1133 (NSC836407), SN-38 (NSC673596), topotecan (NSC609699), etoposide (NSC141540), doxorubicin (NSC123127), gemcitabine (NSC613327), 5-fluorouracil (NSC19893), paclitaxel (NSC125973), vemurafenib (NSC761431), panobinostat (NSC761190), R-306465 (JNJ-16241199; NSC773264), adavosertib (NSC754352), TP-3654 (NSC805149), carboplatin (NSC241240), KSQ-4279 (NSC840948), and staurosporine (NSC755774) were obtained from the National Cancer Institute (NCI) Developmental Therapeutics Program Chemical Repository (34). The FDA-approved anticancer drug set is available from the NCI Developmental Therapeutics Program. […] The stock solutions were prepared in dimethyl sulfoxide (DMSO, Sigma-Aldrich, St. Louis, MO, cat. D2650) at 800-fold the tested concentration and stored at -70 degrees C prior to their use. All drugs and investigational agents were tested over a range starting from a high concentration at or near the clinical Cmax and decreasing in half-log increments. If the clinical Cmax for an agent had not been determined, the highest concentration tested was 10 microM.
2.3 Cell Culture. All cells were maintained in an incubator at 37 degrees C and 5% CO2 with 95% humidity. The PDC lines were cultured according to standard operating procedures established by the NCI PDMR. All PDCs were thawed and cultured in Matrigel-coated flasks prepared with a working solution of 1X Ham's F-12 nutrient mix, without supplementation (Invitrogen, cat. 11765054), 100 U/mL penicillin-streptomycin (Invitrogen, cat. 15140122), and 2.5% Matrigel (Corning Inc., cat. 354248) for the first three passages. The 857933-349-R-J2-PDC line was cultured in 6C/Colon 1B media, which includes advanced DMEM/F-12 (Thermo Fisher Scientific, cat. 12634028), 10 mM HEPES (Thermo Fisher Scientific, cat. 15630080), 1X GlutaMAX supplement (Thermo Fisher Scientific, cat. 35050061), 0.1 mg/mL primocin (InvivoGen, cat. ant-pm-2), 10% defined fetal bovine serum, heat inactivated (HyClone Laboratories Inc., cat. SH30070.03HI), 50% L-WRN conditioned media (ATCC, cat. CRL-3276), 1.25 mM N-Acetyl-L-cysteine (Sigma-Aldrich, cat. A9165), 10 mM nicotinamide (Sigma-Aldrich, cat. N0636), 1X B-27 supplement (Thermo Fisher Scientific, cat. 17504044), 1X N-2 supplement (Thermo Fisher Scientific, cat. 17502048), 10 microM Y-27632 dihydrochloride (Tocris Bioscience, cat. 1254), and 50 ng/mL human EGF recombinant protein (Thermo Fisher Scientific, cat. PHG0311). The 485176-168-R4-J1-PDC line was cultured in Panc media, which includes all 6C/Colon 1B media components plus 100 ng/mL human FGF-10 (Thermo Fisher Scientific, cat. 100-26), 500 nM SB-431542 (Selleckchem, cat. S1067), and gastrin (Tocris, cat. 3006).
[…]

[1] = second compound 0.0316 µM, first compound 0.0316 µM
[2] = second compound 0.0316 µM, first compound 0.1 µM
[3] = second compound 0.0316 µM, first compound 0.316 µM
[4] = second compound 0.0316 µM, first compound 1 µM
[5] = second compound 0.0316 µM, first compound 3.16 µM
[6] = second compound 0.0316 µM, first compound 10 µM
[7] = second compound 0.1 µM, first compound 0.0316 µM
[8] = second compound 0.1 µM, first compound 0.1 µM
[9] = second compound 0.1 µM, first compound 0.316 µM
[10] = second compound 0.1 µM, first compound 1 µM
[11] = second compound 0.1 µM, first compound 3.16 µM
[12] = second compound 0.1 µM, first compound 10 µM
[13] = second compound 0.316 µM, first compound 0.0316 µM
[14] = second compound 0.316 µM, first compound 0.1 µM
[15] = second compound 0.316 µM, first compound 0.316 µM
[16] = second compound 0.316 µM, first compound 1 µM
[17] = second compound 0.316 µM, first compound 3.16 µM
[18] = second compound 0.316 µM, first compound 10 µM
[19] = second compound 1 µM, first compound 0.0316 µM
[20] = second compound 1 µM, first compound 0.1 µM
[21] = second compound 1 µM, first compound 0.316 µM
[22] = second compound 1 µM, first compound 1 µM
[23] = second compound 1 µM, first compound 3.16 µM
[24] = second compound 1 µM, first compound 10 µM
[25] = second compound 3.16 µM, first compound 0.0316 µM
[26] = second compound 3.16 µM, first compound 0.1 µM
[27] = second compound 3.16 µM, first compound 0.316 µM
[28] = second compound 3.16 µM, first compound 1 µM
[29] = second compound 3.16 µM, first compound 3.16 µM
[30] = second compound 3.16 µM, first compound 10 µM
[31] = second compound 10 µM, first compound 0.0316 µM
[32] = second compound 10 µM, first compound 0.1 µM
[33] = second compound 10 µM, first compound 0.316 µM
[34] = second compound 10 µM, first compound 1 µM
[35] = second compound 10 µM, first compound 3.16 µM
[36] = second compound 10 µM, first compound 10 µM
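Further: spheroids exposed to compounds for one week before readout.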
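Wherever viability, T/C is given: percent viability relative to vehicle DMSO wells taken as 100%.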

CC1COCCN1c1cc(-c2ccnn2C)c2ccnc(-c3ccn[nH]3)c2n1 (centres undefined) + CN(C)c1ccc(Nc2c3ccc(NC(=O)CCN4CCCC4)cc3nc3cc(NC(=O)CCN4CCCC4)ccc23)cc1 was tested, and the IC50 (second compound 0.0316 µM) was > 10 µM, the IC50 (second compound 0.1 µM) was > 10 µM and the IC50 (second compound 0.316 µM) was > 10 µM. The IC50 (second compound 1 µM) was > 10 µM, the IC50 (second compound 3.16 µM) was > 10 µM and the IC50 (second compound 10 µM) was 2.95 µM. For the same compound, the viability, T/C [1] was 98.3%, the viability, T/C [2] was 80.7% and the viability, T/C [3] was 78%. It also gave a viability, T/C [4] of 60.8%, a viability, T/C [5] of 56.2% and a viability, T/C [6] of 62.5%. It also gave a viability, T/C [7] of 96.1%, a viability, T/C [8] of 82.5% and a viability, T/C [9] of 73.5%. It also gave a viability, T/C [10] of 58.3%, a viability, T/C [11] of 54.3% and a viability, T/C [12] of 69.7%. For the same compound, the viability, T/C [13] was 90.8%, the viability, T/C [14] was 80.8% and the viability, T/C [15] was 74.7%. It also gave a viability, T/C [16] of 59.4%, a viability, T/C [17] of 58.6% and a viability, T/C [18] of 63.1%. The viability, T/C [19] was 93.5%, the viability, T/C [20] was 73.4% and the viability, T/C [21] was 73.8%. The viability, T/C [22] was 55.9%, the viability, T/C [23] was 58.4% and the viability, T/C [24] was 54.3%. The viability, T/C [25] was 85.9%, the viability, T/C [26] was 71.8% and the viability, T/C [27] was 66.1%. It also gave a viability, T/C [28] of 53.1%, a viability, T/C [29] of 58.9% and a viability, T/C [30] of 52.4%. The viability, T/C [31] was 75.8%, the viability, T/C [32] was 70.8% and the viability, T/C [33] was 61.9%. For the same compound, the viability, T/C [34] was 55.2%, the viability, T/C [35] was 49.6% and the viability, T/C [36] was 44.6%.
In the case of CC1COCCN1c1cc(C2(S(C)(=N)=O)CC2)nc(-c2ccnc3[nH]ccc23)n1 (centres undefined) + CN(C)c1ccc(Nc2c3ccc(NC(=O)CCN4CCCC4)cc3nc3cc(NC(=O)CCN4CCCC4)ccc23)cc1, the IC50 (second compound 0.0316 µM) is reported as > 10 µM, the IC50 (second compound 0.1 µM) is reported as > 10 µM and the IC50 (second compound 0.316 µM) is reported as > 10 µM. The IC50 (second compound 1 µM) was > 10 µM, the IC50 (second compound 3.16 µM) was > 10 µM and the IC50 (second compound 10 µM) was > 10 µM. The viability, T/C [1] was 104%, the viability, T/C [2] was 108% and the viability, T/C [3] was 102%. It also gave a viability, T/C [4] of 87.7%, a viability, T/C [5] of 82.4% and a viability, T/C [6] of 63.2%. The viability, T/C [7] was 106%, the viability, T/C [8] was 102% and the viability, T/C [9] was 101%. The viability, T/C [10] was 94.9%, the viability, T/C [11] was 75.1% and the viability, T/C [12] was 69.2%. It also gave a viability, T/C [13] of 103%, a viability, T/C [14] of 99.1% and a viability, T/C [15] of 97.8%. For the same compound, the viability, T/C [16] was 88.8%, the viability, T/C [17] was 86.6% and the viability, T/C [18] was 66.1%. It also gave a viability, T/C [19] of 99.2%, a viability, T/C [20] of 94.6% and a viability, T/C [21] of 96.4%. It also gave a viability, T/C [22] of 88%, a viability, T/C [23] of 82.5% and a viability, T/C [24] of 62.7%. It also gave a viability, T/C [25] of 92.3%, a viability, T/C [26] of 84.9% and a viability, T/C [27] of 94.8%. The viability, T/C [28] was 81.2%, the viability, T/C [29] was 81.6% and the viability, T/C [30] was 59.6%. The viability, T/C [31] was 70.8%, the viability, T/C [32] was 76.8% and the viability, T/C [33] was 77.5%. The viability, T/C [34] was 78%, the viability, T/C [35] was 69.8% and the viability, T/C [36] was 61.4%.
